Measurements published in patent US7671112B2, “Method of making fluoropolymer dispersion” (priority 2005, dated 2010).
Marks after values point to notes of the source that are not given here.

Experiment: Determination of bio-accumulation: urinary clearance pharmacokinetic study in rats
Format: in vivo, male Sprague Dawley rats
Conditions: oral gavage; for T½: elimination via urine, exponential least squares curve fitting of concentration in urine; for Compound-related Effects: clinical observation and gross necropsy 96 hours post-dose
[1] = 73 micro Moles per kg body weight, recovered in urine up to 96 h
[2] = 73 micro Moles per kg body weight
[3] = 73 micro Moles per kg, based on elimination of the major metabolite C3F7—O—CHFCOO−, no parent compound in urine

% Recovery (96 h) [1] | T½ [2] | % Recovery (96 h) [3] | T½ (h) [3] | SMILES | Compound-related Effects [2]
73% | – | – | – | N.O=C(O)C(F)(F)OC(F)(F)C(F)(F)C(F)(F)OC(F)(F)F [Compound 1, CF3—O—(CF2)3—O—CF2—COONH4] | –
96% | 12 h | – | – | N.O=C(O)C(F)(F)OC(F)(F)OC(F)(F)F [Compound 2, CF3—OCF2—O—CF2—COONH4] | –
50% | – | – | – | N.O=C(O)C(F)(F)OC(F)(F)C(F)(F)C(F)(F)OC(F)(F)F [Compound 4, CF3—(OCF2)3—OCF2—COONH4] | –
97% | 11 h | – | – | N.O=C(O)C(F)(F)OC(F)(F)C(F)(F)C(F)(F)F [Compound 5, C3F7—O—CF2—COONH4] | –
100% | 10 h | – | – | N.O=C(O)C(F)(F)C(F)(F)OC(F)(F)C(F)(F)F [Compound 7, C2F5—O—CF2—CF2—COONH4] | –
82% | 12 h | – | – | N.O=C(O)C(F)(F)C(F)(F)OC(F)(F)C(F)(F)C(F)(F)F [Compound 8, C3F7—O—CF2—CF2—COONH4] | –
42% | 31 h | – | – | N.O=C(O)C(F)(F)C(F)(F)OC(F)(F)C(F)(F)C(F)(F)C(F)(F)F [Compound 9, C4F9—O—CF2—CF2—COONH4] | Hepatomegaly
84% | 12 h | – | – | N.O=C(O)C(F)(F)C(F)OC(F)(F)C(F)(F)C(F)(F)OC(F)(F)F (centres unmarked) [Compound 11, CF3—O—CF2—CF2—CF2—O—CHF—CF2—COONH4] | –
95% | 11 h | – | – | N.O=C(O)C(F)OC(F)(F)C(F)(F)C(F)(F)OC(F)(F)F (centres unmarked) [Compound 12, CF3—O—CF2—CF2—CF2—O—CHF—COONH4] | –
94% | 11 h | – | – | N.O=C(O)C(F)(F)C(F)OC(F)(F)C(F)(F)C(F)(F)F (centres unmarked) [Compound 13, C3F7—O—CFH—CF2COONH4] | –
32% | 24 h | – | – | N.O=C(O)C(F)(F)C(F)(F)C(F)(F)C(F)(F)C(F)(F)OC(F)C(F)(F)F (centres unmarked) [Compound 14, CF3—CFH—O—(CF2)5—COONH4] | Hepatomegaly
95% | 8 h | – | – | N.O=C(O)C(F)(F)C(F)(F)C(F)(F)OC(F)C(F)(F)F (centres unmarked) [Compound 15, CF3—CFH—O—(CF2)3—COONH4] | –
– | – | 65* % | 13* h | N.O=C(O)COC(F)(F)C(F)OC(F)(F)C(F)(F)C(F)(F)F (centres unmarked) [Compound 16, C3F7—O—CFH—CF2—O—CH2—COONH4] | –
5% | 95 h | – | – | N.O=C(O)C(F)(F)OC(F)(F)C(F)(OC(F)(F)C(F)(F)C(F)(F)F)C(F)(F)F (centres unmarked) [Compound C-3, C3F7—O—CF(CF3)—CF2—O—CF2—COONH4, reference compound] | Hepatomegaly

SMILES | % Recovery (96 h) [1] | T½ [2] | % Recovery (96 h) [3] | T½ (h) [3] | Compound-related Effects [2]
N.O=C(O)C(F)(F)OC(F)(F)OC(F)(F)OC(F)(F)F [Compound 3, CF3—OCF2—OCF2—OCF2—COONH4] | 100% | 12 h | – | – | –
N.O=C(O)C(F)(F)C(F)(F)OC(F)(F)F [Compound 6, CF3—O—CF2—CF2—COONH4] | 100% | 11 h | – | – | –
N.O=C(O)C(F)(F)OC(F)(F)C(F)(F)OC(F)(F)C(F)(F)F [Compound 10, C2F5—O—CF2—CF2—O—CF2—COONH4] | 99% | 10 h | – | – | –
N.O=C(O)C(F)(F)C(F)(F)C(F)(F)C(F)(F)C(F)(F)C(F)(F)C(F)(F)F [Compound C-1, C7F15COONH4, reference compound] | 6% | ~550 h | – | – | Hepatomegaly
